This data set in a line: MTD assay of AST-3424, single 30 min intravenous drip. Format: in vivo, machins. Particulars: for maximal tolerance dose: single dose; for day of test substance-related death: male. Here is the method: The maximal tolerance dose in machins after a single administration of AST-3424 injection by intravenous drip for 30 minutes was evaluated.

`C[C@@H](OP(=O)(N1CC1)N1CC1)c1ccc([N+](=O)[O-])c(Oc2cccc(C(=O)N(C)C)c2)c1` [AST-3424]: the maximal tolerance dose was 1.5 mg/kg (female machins) and 0.5 mg/kg (male machins). For the same compound, the clinical observation result (female monkeys, 1.5 mg/kg) was “weight loss, decreased food consumption, diarrhoea and vomiting”. For the same compound, the “day of test substance-related death” value by setting is: (1.0 mg/kg) 16 days; (1.5 mg/kg) 8 days. For the same compound, under “single intravenous drip 30 minutes”, the “doses at which death of male monkeys was observed” value is reported as at least 1.0 mg/kg.

The values are drawn from US20260159536A1, “AKR1C3-ACTIVATED DNA ALKYLATING AGENT, AND MEDICAL APPLICATION THEREOF” (ASCENTAWITS PHARMACEUTICALS, LTD., priority 2021, published 2026).
